Results from the NIST ThermoML archive (doi:10.1021/acs.jced.8b00157).
“And” between values parts separate entries of the source, which are not always exact repeats. Equal values may be shown once. ± gives the expanded uncertainty stated by the source.

Assay: an = ratio of the nth substance listed
Details: 100 kPa, Liquid, Buoyancy - hydrostatic balance

[F][Al]([F])[F] [aluminum fluoride] + [F-].[K+]
Details | mass density
1123.5 K, a2 = 1.5 | 1749 ± 10 kg/m3
1124 K, a2 = 1.5 | 1748 ± 10 kg/m3
1124.4 K, a2 = 1.5 | 1748 ± 10 kg/m3
1124.9 K, a2 = 1.5 | 1747 ± 10 kg/m3
1125.1 K, a2 = 1.5 | 1747 ± 10 kg/m3
1125.7 K, a2 = 1.5 | 1747 ± 10 kg/m3
1126.2 K, a2 = 1.5 | 1747 ± 10 kg/m3
1126.6 K, a2 = 1.5 | 1746 ± 10 kg/m3
1127 K, a2 = 1.5 | 1746 ± 10 kg/m3
1127.4 K, a2 = 1.5 | 1746 ± 10 kg/m3
1127.8 K, a2 = 1.5 | 1745 ± 10 kg/m3
1128.2 K, a2 = 1.5 | 1745 ± 10 kg/m3
1128.6 K, a2 = 1.5 | 1745 ± 10 kg/m3
1128.9 K, a2 = 1.5 | 1745 ± 10 kg/m3
1129.6 K, a2 = 1.5 | 1744 ± 10 kg/m3
1129.8 K, a2 = 1.5 | 1744 ± 10 kg/m3
1130.3 K, a2 = 1.5 | 1743 ± 10 kg/m3
1130.8 K, a2 = 1.5 | 1743 ± 10 kg/m3
1131 K, a2 = 1.5 | 1743 ± 10 kg/m3
1131.5 K, a2 = 1.5 | 1742 ± 10 kg/m3
1132 K, a2 = 1.5 | 1742 ± 10 kg/m3
1132.3 K, a2 = 1.5 | 1742 ± 10 kg/m3
1132.7 K, a2 = 1.5 | 1742 ± 10 kg/m3
1133.2 K, a2 = 1.5 | 1741 ± 10 kg/m3
1133.6 K, a2 = 1.5 | 1741 ± 10 kg/m3
1134 K, a2 = 1.5 | 1741 ± 10 kg/m3
1134.3 K, a2 = 1.5 | 1740 ± 10 kg/m3
1134.8 K, a2 = 1.5 | 1740 ± 10 kg/m3
1135.2 K, a2 = 1.5 | 1740 ± 10 kg/m3
1135.6 K, a2 = 1.5 | 1739 ± 11 kg/m3
1136.1 K, a2 = 1.5 | 1739 ± 10 kg/m3
1163.2 K, a2 = 1.7 | 1864 ± 10 kg/m3
1163.3 K, a2 = 1.7 | 1864 ± 11 kg/m3
1163.4 K, a2 = 1.7 | 1864 ± 11 kg/m3
1163.6 K, a2 = 1.7 | 1863 ± 10 kg/m3
1164.4 K, a2 = 1.7 | 1863 ± 11 kg/m3
1165 K, a2 = 1.7 | 1864 ± 11 kg/m3
1165.1 K, a2 = 1.7 | 1863 ± 11 kg/m3
1165.3 K, a2 = 1.7 | 1862 ± 11 kg/m3 and 1863 ± 11 kg/m3
1165.4 K, a2 = 1.7 | 1863 ± 11 kg/m3
1166.1 K, a2 = 1.7 | 1861 ± 11 kg/m3
1166.2 K, a2 = 1.7 | 1861 ± 11 kg/m3
1166.4 K, a2 = 1.7 | 1862 ± 11 kg/m3
1166.6 K, a2 = 1.7 | 1862 ± 11 kg/m3
1166.8 K, a2 = 1.7 | 1861 ± 10 kg/m3
1167 K, a2 = 1.7 | 1860 ± 10 kg/m3
1167.3 K, a2 = 1.7 | 1860 ± 10 kg/m3 and 1861 ± 10 kg/m3
1167.5 K, a2 = 1.7 | 1860 ± 11 kg/m3
1167.6 K, a2 = 1.7 | 1861 ± 11 kg/m3
1168.2 K, a2 = 1.7 | 1860 ± 11 kg/m3
1168.6 K, a2 = 1.7 | 1859 ± 10 kg/m3
1169.1 K, a2 = 1.7 | 1860 ± 11 kg/m3 and 1859 ± 10 kg/m3
1169.2 K, a2 = 1.7 | 1859 ± 10 kg/m3
1169.4 K, a2 = 1.7 | 1858 ± 10 kg/m3
1169.6 K, a2 = 1.7 | 1858 ± 10 kg/m3
1169.7 K, a2 = 1.7 | 1858 ± 10 kg/m3
1169.8 K, a2 = 1.7 | 1858 ± 10 kg/m3
1170.3 K, a2 = 1.7 | 1857 ± 11 kg/m3
1170.5 K, a2 = 1.7 | 1857 ± 11 kg/m3
1170.6 K, a2 = 1.7 | 1857 ± 11 kg/m3
1171.1 K, a2 = 1.7 | 1857 ± 11 kg/m3
1172 K, a2 = 1.7 | 1856 ± 11 kg/m3 and 1857 ± 11 kg/m3
1172.2 K, a2 = 1.7 | 1855 ± 10 kg/m3
1172.7 K, a2 = 1.7 | 1856 ± 11 kg/m3
1173.3 K, a2 = 1.7 | 1856 ± 11 kg/m3
1173.8 K, a2 = 1.7 | 1854 ± 11 kg/m3
1174 K, a2 = 1.7 | 1855 ± 10 kg/m3
1174.1 K, a2 = 1.7 | 1855 ± 11 kg/m3 and 1854 ± 11 kg/m3
1174.5 K, a2 = 1.7 | 1853 ± 10 kg/m3
1174.6 K, a2 = 1.7 | 1854 ± 10 kg/m3
1174.9 K, a2 = 1.7 | 1855 ± 10 kg/m3
1175.1 K, a2 = 1.7 | 1852 ± 10 kg/m3 and 1854 ± 10 kg/m3
1175.4 K, a2 = 1.7 | 1854 ± 10 kg/m3
1175.6 K, a2 = 1.7 | 1854 ± 11 kg/m3
1175.8 K, a2 = 1.7 | 1853 ± 10 kg/m3
1175.9 K, a2 = 1.7 | 1852 ± 10 kg/m3
1176 K, a2 = 1.7 | 1852 ± 10 kg/m3 and 1853 ± 10 kg/m3
1176.8 K, a2 = 1.7 | 1851 ± 10 kg/m3
1177.3 K, a2 = 1.7 | 1851 ± 10 kg/m3
1177.5 K, a2 = 1.7 | 1852 ± 10 kg/m3
1177.8 K, a2 = 1.7 | 1851 ± 10 kg/m3
1177.9 K, a2 = 1.7 | 1852 ± 10 kg/m3
1178.2 K, a2 = 1.7 | 1851 ± 11 kg/m3
1178.3 K, a2 = 1.7 | 1851 ± 10 kg/m3
1178.4 K, a2 = 1.7 | 1850 ± 10 kg/m3
1179.5 K, a2 = 1.7 | 1849 ± 11 kg/m3
1179.7 K, a2 = 1.7 | 1849 ± 11 kg/m3
1179.8 K, a2 = 1.7 | 1850 ± 10 kg/m3
1179.9 K, a2 = 1.7 | 1849 ± 10 kg/m3
1180 K, a2 = 1.7 | 1850 ± 11 kg/m3
1180.2 K, a2 = 1.7 | 1848 ± 11 kg/m3
1180.4 K, a2 = 1.7 | 1849 ± 10 kg/m3
1180.7 K, a2 = 1.7 | 1849 ± 11 kg/m3
1181 K, a2 = 1.7 | 1848 ± 11 kg/m3
1181.4 K, a2 = 1.7 | 1849 ± 10 kg/m3
1181.5 K, a2 = 1.7 | 1848 ± 11 kg/m3
1181.8 K, a2 = 1.7 | 1847 ± 11 kg/m3
1182.4 K, a2 = 1.7 | 1846 ± 10 kg/m3 and 1847 ± 10 kg/m3 and 1848 ± 10 kg/m3
1182.6 K, a2 = 1.7 | 1847 ± 11 kg/m3
1182.7 K, a2 = 1.7 | 1847 ± 11 kg/m3
1183.2 K, a2 = 1.7 | 1846 ± 10 kg/m3
1183.6 K, a2 = 1.7 | 1846 ± 11 kg/m3
1183.8 K, a2 = 1.7 | 1846 ± 10 kg/m3
1184.2 K, a2 = 1.7 | 1846 ± 10 kg/m3
1184.3 K, a2 = 1.7 | 1845 ± 10 kg/m3
1184.6 K, a2 = 1.7 | 1846 ± 10 kg/m3
1184.8 K, a2 = 1.7 | 1845 ± 10 kg/m3
1184.9 K, a2 = 1.7 | 1845 ± 10 kg/m3
1185.1 K, a2 = 1.7 | 1845 ± 10 kg/m3
1185.4 K, a2 = 1.7 | 1844 ± 10 kg/m3
1185.7 K, a2 = 1.7 | 1844 ± 10 kg/m3
1186.3 K, a2 = 1.7 | 1843 ± 10 kg/m3
1186.4 K, a2 = 1.7 | 1844 ± 11 kg/m3
1186.5 K, a2 = 1.7 | 1844 ± 10 kg/m3
1186.8 K, a2 = 1.7 | 1843 ± 10 kg/m3
1186.9 K, a2 = 1.7 | 1843 ± 10 kg/m3
1187.8 K, a2 = 1.7 | 1843 ± 10 kg/m3 and 1842 ± 11 kg/m3 and 1842 ± 10 kg/m3
1188.1 K, a2 = 1.7 | 1842 ± 10 kg/m3
